In ChEMBL document CHEMBL5291721, “A preclinical secondary pharmacology resource illuminates target-adverse drug reaction associations of marketed drugs” (Nat Commun, 2023) one finds AC50 data, which are given here for 10 molecules.

In experiment [1] the target is Muscarinic acetylcholine receptor M3 (Homo sapiens, UniProt P20309).
For experiment [2], the target named is Melanocortin receptor 3 (Homo sapiens, UniProt P41968).
The target of experiment [3] is T1, B2 bradykinin receptor (Homo sapiens, UniProt P30411).
T1 sequence (P30411 whole entry): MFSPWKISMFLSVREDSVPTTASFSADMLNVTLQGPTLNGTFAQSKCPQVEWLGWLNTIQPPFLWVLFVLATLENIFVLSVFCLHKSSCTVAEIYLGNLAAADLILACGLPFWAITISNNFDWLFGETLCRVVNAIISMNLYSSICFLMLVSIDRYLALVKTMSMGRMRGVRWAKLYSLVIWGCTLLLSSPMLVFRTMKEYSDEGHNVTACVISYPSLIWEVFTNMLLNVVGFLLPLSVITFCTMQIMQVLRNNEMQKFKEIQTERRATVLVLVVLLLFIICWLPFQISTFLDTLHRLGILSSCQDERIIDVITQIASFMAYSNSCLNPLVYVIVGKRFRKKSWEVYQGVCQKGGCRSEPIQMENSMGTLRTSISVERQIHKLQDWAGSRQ

The target in experiment [4] is 5-hydroxytryptamine receptor 2A (Homo sapiens, UniProt P28223). In kind it is functional, cell-based.
For experiment [5], the target named is Adenosine receptor A2a (Homo sapiens, UniProt P29274).
Experiment [6] deals with Delta-type opioid receptor (Homo sapiens, UniProt P41143).
Experiment [7] addresses Motilin receptor (Homo sapiens, UniProt O43193).
Experiment [8] addresses T2, Amine oxidase [flavin-containing] A (Homo sapiens, UniProt P21397).
T2 sequence (P21397 whole entry): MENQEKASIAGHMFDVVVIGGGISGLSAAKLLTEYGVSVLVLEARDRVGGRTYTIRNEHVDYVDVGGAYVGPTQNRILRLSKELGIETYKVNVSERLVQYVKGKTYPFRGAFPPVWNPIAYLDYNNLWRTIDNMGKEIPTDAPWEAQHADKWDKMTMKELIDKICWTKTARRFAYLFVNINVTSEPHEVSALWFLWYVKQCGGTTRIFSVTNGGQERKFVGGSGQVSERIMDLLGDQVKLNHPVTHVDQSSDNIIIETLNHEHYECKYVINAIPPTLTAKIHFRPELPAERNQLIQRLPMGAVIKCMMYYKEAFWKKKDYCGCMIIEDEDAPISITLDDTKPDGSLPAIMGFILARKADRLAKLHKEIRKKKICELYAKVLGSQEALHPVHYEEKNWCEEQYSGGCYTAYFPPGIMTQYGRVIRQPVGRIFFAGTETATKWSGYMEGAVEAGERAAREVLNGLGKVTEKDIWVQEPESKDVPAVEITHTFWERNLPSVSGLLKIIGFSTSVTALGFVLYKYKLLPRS
The class given is functional.

The target of experiment [9] is Beta-2 adrenergic receptor (Homo sapiens, UniProt P07550).
Experiment [10] addresses Neuronal acetylcholine receptor subunit alpha-4 (Homo sapiens, UniProt P43681).
The target of experiment [11] is T3, Thromboxane A2 receptor (Homo sapiens, UniProt P21731).
T3 sequence (P21731 whole entry): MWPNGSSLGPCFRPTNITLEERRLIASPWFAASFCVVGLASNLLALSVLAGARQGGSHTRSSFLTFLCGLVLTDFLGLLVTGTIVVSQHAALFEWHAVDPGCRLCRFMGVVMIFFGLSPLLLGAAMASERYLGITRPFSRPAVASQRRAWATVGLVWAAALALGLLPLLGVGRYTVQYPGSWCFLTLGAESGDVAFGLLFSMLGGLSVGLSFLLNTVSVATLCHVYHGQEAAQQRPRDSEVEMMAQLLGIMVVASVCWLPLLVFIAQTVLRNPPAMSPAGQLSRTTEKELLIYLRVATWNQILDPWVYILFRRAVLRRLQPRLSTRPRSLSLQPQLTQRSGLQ

The target in experiment [12] is T4, Glucocorticoid receptor (Homo sapiens, UniProt P04150).
T4 sequence (P04150 whole entry): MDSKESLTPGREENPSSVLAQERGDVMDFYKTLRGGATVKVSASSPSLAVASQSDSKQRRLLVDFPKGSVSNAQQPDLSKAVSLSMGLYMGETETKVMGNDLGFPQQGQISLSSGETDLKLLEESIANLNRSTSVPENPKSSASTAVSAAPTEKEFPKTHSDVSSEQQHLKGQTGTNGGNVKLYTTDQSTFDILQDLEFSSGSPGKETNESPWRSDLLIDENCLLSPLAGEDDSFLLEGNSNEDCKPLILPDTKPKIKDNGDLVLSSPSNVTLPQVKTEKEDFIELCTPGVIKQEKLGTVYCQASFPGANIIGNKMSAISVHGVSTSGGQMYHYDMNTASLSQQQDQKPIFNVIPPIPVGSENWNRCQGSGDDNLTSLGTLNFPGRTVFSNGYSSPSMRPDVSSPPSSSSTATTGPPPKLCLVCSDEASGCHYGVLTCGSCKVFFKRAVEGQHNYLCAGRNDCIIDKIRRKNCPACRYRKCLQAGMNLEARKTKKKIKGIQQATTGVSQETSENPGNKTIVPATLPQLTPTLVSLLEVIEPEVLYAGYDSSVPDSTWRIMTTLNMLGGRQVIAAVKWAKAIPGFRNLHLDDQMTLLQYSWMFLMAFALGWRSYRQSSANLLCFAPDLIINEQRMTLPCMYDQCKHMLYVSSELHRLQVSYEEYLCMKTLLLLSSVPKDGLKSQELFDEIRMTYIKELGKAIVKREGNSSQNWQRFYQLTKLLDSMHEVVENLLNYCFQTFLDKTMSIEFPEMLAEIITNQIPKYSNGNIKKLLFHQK

For experiment [13], the target named is T5, Endothelin-1 receptor (Homo sapiens, UniProt P25101).
T5 sequence (P25101 whole entry): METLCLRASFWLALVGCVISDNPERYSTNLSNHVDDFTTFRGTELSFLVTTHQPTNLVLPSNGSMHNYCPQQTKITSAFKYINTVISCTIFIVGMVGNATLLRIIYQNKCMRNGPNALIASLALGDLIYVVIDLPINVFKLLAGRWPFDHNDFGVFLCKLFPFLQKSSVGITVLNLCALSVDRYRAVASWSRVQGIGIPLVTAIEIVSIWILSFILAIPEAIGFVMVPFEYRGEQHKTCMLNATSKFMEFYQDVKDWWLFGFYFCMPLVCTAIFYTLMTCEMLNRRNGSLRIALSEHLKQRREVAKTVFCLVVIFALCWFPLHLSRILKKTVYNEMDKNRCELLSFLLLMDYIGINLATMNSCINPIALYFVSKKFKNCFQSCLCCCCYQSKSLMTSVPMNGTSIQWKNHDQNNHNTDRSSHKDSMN

Molecules are shown by their SMILES.
Note: assay procedure not described here.

Sequence of Melanocortin receptor 3 (P41968 whole entry): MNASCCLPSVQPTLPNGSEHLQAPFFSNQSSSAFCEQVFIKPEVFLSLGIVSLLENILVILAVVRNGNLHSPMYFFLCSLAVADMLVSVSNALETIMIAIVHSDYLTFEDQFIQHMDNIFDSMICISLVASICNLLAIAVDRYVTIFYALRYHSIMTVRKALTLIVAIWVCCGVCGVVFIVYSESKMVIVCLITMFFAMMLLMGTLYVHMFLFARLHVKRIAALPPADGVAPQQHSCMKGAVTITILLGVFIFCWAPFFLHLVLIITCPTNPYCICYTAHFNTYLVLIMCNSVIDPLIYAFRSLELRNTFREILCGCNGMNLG
Sequence of Muscarinic acetylcholine receptor M3 (P20309 whole entry): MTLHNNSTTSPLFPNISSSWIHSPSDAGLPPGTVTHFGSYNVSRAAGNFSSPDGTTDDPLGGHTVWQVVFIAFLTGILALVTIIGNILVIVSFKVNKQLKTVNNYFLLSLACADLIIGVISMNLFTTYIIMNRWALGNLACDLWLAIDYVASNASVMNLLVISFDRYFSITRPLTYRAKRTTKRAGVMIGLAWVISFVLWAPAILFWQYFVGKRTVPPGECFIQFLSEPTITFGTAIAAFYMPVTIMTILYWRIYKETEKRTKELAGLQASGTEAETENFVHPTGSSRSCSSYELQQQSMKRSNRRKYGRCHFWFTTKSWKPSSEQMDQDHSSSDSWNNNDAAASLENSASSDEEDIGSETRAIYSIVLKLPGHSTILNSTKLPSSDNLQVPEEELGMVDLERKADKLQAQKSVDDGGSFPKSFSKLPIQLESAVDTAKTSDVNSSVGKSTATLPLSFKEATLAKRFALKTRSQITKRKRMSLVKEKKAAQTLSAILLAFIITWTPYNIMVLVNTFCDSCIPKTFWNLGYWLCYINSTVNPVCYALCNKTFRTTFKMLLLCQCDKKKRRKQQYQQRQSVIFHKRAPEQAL
Sequence of Beta-2 adrenergic receptor (P07550 whole entry): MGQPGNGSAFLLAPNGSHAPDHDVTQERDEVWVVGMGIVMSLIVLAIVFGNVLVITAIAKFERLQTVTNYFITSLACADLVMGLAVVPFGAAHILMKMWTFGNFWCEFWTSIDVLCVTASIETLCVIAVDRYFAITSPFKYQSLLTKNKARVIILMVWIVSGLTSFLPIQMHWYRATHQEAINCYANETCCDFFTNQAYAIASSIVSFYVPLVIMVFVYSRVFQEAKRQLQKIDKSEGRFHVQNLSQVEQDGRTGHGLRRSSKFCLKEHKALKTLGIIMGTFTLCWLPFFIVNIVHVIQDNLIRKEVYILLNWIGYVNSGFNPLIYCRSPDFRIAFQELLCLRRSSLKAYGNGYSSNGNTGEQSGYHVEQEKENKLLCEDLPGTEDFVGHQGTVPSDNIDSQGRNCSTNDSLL
Sequence of 5-hydroxytryptamine receptor 2A (P28223 whole entry): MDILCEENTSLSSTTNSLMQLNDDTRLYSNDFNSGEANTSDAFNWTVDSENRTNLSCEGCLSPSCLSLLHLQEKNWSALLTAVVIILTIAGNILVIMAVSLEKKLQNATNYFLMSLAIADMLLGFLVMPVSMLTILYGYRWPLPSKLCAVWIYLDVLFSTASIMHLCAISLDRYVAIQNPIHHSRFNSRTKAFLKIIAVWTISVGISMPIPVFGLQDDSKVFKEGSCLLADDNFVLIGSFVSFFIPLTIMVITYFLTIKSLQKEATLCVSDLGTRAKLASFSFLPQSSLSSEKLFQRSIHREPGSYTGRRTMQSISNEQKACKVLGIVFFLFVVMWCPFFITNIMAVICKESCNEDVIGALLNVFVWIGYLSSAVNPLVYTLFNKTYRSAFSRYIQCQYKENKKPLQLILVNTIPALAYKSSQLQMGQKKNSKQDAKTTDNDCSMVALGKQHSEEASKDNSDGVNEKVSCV
Sequence of Neuronal acetylcholine receptor subunit alpha-4 (P43681 whole entry): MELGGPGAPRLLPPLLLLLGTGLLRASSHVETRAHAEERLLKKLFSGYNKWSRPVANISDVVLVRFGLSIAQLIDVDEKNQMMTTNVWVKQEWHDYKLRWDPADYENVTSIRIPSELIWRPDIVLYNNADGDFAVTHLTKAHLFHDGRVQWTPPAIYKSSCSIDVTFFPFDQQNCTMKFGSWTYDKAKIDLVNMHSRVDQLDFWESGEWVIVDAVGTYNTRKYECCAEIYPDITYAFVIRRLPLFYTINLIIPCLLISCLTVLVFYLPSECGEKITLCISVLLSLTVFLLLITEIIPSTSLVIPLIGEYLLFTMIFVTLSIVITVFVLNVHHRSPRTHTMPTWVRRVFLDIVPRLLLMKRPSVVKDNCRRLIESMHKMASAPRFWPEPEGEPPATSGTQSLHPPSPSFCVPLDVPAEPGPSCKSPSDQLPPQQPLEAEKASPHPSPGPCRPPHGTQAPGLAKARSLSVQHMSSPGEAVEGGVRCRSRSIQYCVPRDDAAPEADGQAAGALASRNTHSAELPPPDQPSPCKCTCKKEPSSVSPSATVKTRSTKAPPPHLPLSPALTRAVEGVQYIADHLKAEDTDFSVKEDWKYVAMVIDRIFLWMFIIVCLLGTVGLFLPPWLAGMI
Sequence of Adenosine receptor A2a (P29274 whole entry): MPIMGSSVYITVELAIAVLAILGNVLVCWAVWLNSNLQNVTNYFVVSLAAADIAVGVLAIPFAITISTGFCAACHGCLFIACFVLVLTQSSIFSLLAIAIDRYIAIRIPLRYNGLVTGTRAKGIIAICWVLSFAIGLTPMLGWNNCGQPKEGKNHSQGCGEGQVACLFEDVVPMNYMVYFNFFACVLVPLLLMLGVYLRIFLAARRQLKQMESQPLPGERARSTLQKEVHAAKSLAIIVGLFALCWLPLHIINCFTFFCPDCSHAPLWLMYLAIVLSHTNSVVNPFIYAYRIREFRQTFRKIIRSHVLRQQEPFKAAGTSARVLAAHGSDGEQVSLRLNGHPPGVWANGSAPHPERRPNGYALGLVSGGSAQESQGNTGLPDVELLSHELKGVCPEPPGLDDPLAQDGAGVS
Sequence of Motilin receptor (O43193 whole entry): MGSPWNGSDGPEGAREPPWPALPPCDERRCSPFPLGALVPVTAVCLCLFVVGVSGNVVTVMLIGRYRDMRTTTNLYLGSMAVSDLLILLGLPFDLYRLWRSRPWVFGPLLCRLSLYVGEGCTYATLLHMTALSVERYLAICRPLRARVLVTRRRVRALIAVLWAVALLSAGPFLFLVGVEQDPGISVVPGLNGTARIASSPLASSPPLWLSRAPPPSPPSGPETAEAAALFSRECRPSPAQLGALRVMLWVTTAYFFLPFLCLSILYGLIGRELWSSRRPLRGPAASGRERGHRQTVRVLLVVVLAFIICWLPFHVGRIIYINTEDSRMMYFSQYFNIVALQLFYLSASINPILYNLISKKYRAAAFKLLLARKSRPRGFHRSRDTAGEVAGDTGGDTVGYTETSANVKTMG
Sequence of Delta-type opioid receptor (P41143 whole entry): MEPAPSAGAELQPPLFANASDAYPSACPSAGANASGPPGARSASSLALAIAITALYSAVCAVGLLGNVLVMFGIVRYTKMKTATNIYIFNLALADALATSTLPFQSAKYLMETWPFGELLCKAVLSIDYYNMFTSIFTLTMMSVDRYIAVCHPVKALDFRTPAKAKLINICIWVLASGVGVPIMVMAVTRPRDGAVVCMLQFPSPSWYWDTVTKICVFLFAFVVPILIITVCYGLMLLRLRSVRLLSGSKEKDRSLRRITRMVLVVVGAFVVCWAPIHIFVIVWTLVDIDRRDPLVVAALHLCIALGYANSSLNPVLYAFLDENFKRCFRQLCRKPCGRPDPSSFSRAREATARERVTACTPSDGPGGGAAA

`CC(=O)OCC(=O)[C@@]1(O)CC[C@H]2[C@@H]3CCC4=CC(=O)CC[C@]4(C)C3=CC[C@@]21C` [ANECORTAVE ACETATE]: the AC50 in experiment [1] was over 30 µM; in [2] it was over 10 µM; in experiment [3], over 10 µM; in [4] it was over 10 µM; in experiment [5], over 10 µM; in [6], over 30 µM. Further, the half-maximal activity concentration (AC50) in experiment [7] was over 10 µM; in experiment [8], over 10 µM; in [9], over 10 µM; in experiment [10] it was over 10 µM; in experiment [11], over 10 µM; in [12] it was 1700 nM.

For `NS(=O)(=O)c1cc2c(cc1C(F)(F)F)NC(Cc1ccccc1)NS2(=O)=O` (stereo not drawn) [BENDROFLUMETHIAZIDE], the half-maximal activity concentration (AC50) in experiment [1] was over 30 µM; in [2] it was over 10 µM; in experiment [3], over 10 µM; in [4] it was over 10 µM; in experiment [5] it was over 10 µM; in [6], over 30 µM. The AC50 in [7], in experiment [8], in [9], in experiment [10] and in experiment [11] was over 10 µM throughout.

Consider `CCC(=O)OCC(=O)[C@@]1(OC(=O)CC)[C@@H](C)C[C@H]2[C@@H]3CCC4=CC(=O)C=C[C@]4(C)[C@@]3(F)[C@@H](O)C[C@@]21C` [BETAMETHASONE DIPROPIONATE], for which the AC50 in experiment [1], in experiment [2], in [3], in [4], in experiment [13] and in experiment [5] was over 30 µM each time. Further, the AC50 in [7], in experiment [8], in experiment [9], in experiment [10] and in [11] was over 30 µM each time.

Regarding `CCOC(=O)NNc1ccc(N(CC)CC(C)O)nn1` (stereo not drawn) [CADRALAZINE], the AC50 in [1], in [2], in [3], in [4], in [13] and in [5] was over 30 µM in each case. In addition, the half-maximal activity concentration (AC50) in [6], in experiment [7], in experiment [8], in experiment [9], in [10] and in [11] was over 30 µM each time.

Consider `CCCC(C)(COC(N)=O)COC(=O)NC(C)C` (stereo not drawn) [CARISOPRODOL], for which the half-maximal activity concentration (AC50) in experiment [1] is over 10 µM; in [2], over 30 µM; in [3], over 30 µM; in experiment [4], over 30 µM; in experiment [13], over 30 µM; in experiment [5], over 30 µM. The AC50 in experiment [6] is over 30 µM; in experiment [7] it was over 10 µM; in [8], over 10 µM; in [9] it was over 10 µM; in [10], over 10 µM; in experiment [11] it was over 30 µM.

`CC(C)c1cc2c(cc1S(=O)(=O)O)[C@@]1(C)CCC[C@@](C)(C(=O)O)[C@@H]1CC2` [ECABET]: the half-maximal activity concentration (AC50) in [1], in experiment [2], in experiment [3], in experiment [4], in experiment [13] and in [5] was over 30 µM in each case. The AC50 in [6], in [7], in [8], in experiment [9], in [10] and in [11] was over 30 µM in each case.

For `COC(=O)N[C@@H](C)CNc1nccc(-c2cn(C(C)C)nc2-c2cc(Cl)cc(NS(C)(=O)=O)c2F)n1` [ENCORAFENIB], the concentration at half-maximal activity (AC50) was 8.7 µM in experiment [1]; over 30 µM in [2]; over 30 µM in experiment [3]; over 30 µM in [4]; over 30 µM in experiment [5]; over 30 µM in experiment [6]. For the same molecule, the AC50 in experiment [7] was over 30 µM; in [8], over 30 µM; in experiment [9], over 30 µM; in [10] it was over 30 µM; in experiment [11] it was over 30 µM; in experiment [12] it was over 30000 nM.

In the case of `CN(c1nccc(=O)[nH]1)C1CCN(c2nc3ccccc3n2Cc2ccc(F)cc2)CC1` [MIZOLASTINE], the AC50 in [1], in experiment [2], in [3], in [4], in [13] and in [5] was over 30 µM in each case. Also, the half-maximal activity concentration (AC50) in [6], in experiment [7], in [8], in experiment [9], in experiment [10] and in experiment [11] was over 30 µM in each case.

`O=C1Nc2ccc(Cl)cc2C(c2ccccc2)=NC1O` (stereo not drawn) [OXAZEPAM]: the AC50 in experiment [1] was over 10 µM; in experiment [2], over 30 µM; in [3], over 30 µM; in experiment [4] it was over 30 µM; in experiment [13] it was over 30 µM; in experiment [5], over 30 µM. In addition, the AC50 is over 10 µM in experiment [6]; over 10 µM in experiment [7]; over 10 µM in experiment [8]; over 10 µM in [9]; over 10 µM in experiment [10]; over 30 µM in [11].

Turning to `Cc1ccc(=O)n(-c2ccccc2)c1` [PIRFENIDONE], the AC50 in [1], in [2], in experiment [3], in [4], in experiment [13] and in [5] was over 30 µM throughout. Besides, the half-maximal activity concentration (AC50) in experiment [6], in experiment [7], in experiment [8], in [9], in [10] and in experiment [11] was over 30 µM each time.
